We go through 17 molecules from US8084492B2, “Benzofuran compound and pharmaceutical composition containing the same” (The New Industry Research Organization, priority 2004, dated 2011).

The target in one data set is T1, human BLT2 (Homo sapiens, UniProt Q9NPC1).
T1 construct: expressed in transfected cells; host or cells: CHO cells
T1 sequence (Q9NPC1 1-358): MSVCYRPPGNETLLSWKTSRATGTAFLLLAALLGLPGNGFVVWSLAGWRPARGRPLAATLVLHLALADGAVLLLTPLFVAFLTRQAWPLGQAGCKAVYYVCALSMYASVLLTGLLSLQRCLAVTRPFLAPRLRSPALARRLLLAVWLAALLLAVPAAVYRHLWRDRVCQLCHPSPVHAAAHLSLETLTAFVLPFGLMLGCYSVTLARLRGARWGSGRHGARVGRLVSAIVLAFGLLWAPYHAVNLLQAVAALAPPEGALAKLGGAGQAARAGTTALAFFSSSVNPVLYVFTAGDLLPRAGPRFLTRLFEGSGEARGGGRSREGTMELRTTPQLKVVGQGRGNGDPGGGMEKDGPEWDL
The experiment in a line: LTB4-induced intracellular calcium increase (Fluo-3) in CHO cells expressing human BLT2. The class given is cell-based. The conditions noted are these: CHO cells harbouring BLT2; compound 10 μM; 100 nM LTB4; fluorescence AUC in 10 min. The method, then:
(§1) CHO cells harbouring a gene encoding human BLT1 or human BLT2 and functionally expressing the receptor were seeded in a 96 well plate at 4×10^4 cells/well, and cultured at 37° C. for 60 min. The culture supernatant was removed and a loading buffer (100 μl) containing 4 μM Fluo-3 (manufactured by Dojindo), 0.04% pluoronic acid (manufactured by Sigma) and 1% serum was added. The cells were cultured at 37° C. for 30 min to introduce Fluo-3 into the cells. After culture, the cells were washed with a buffer, and a buffer containing the compound of Example 1 (10 μM (final concentration)) was added, and then 100 nM (final concentration) of leukotriene B4 (LTB4) was added. Changes in the intracellular calcium ion concentration were measured with Flexstation (manufactured by Molecular Devices Corporation) as an increase in the fluorescence intensity (area under a curve in a time-course graph of fluorescence intensity in 10 min measurement). As a positive control of BLT1 and BLT2 antagonists, ZK158252, a known LTB4 inhibitor, was used.
Consider `CCN(CC)C(=O)/C=C(\C)c1cc2cccc(OC(C)c3ccccc3)c2o1` (stereo not shown) [Example 1, (E)-3-[7-(1-phenylethoxy)-benzofuran-2-yl]-but-2-enoic acid-diethylamide], for which the “suppression of increase in the intracellular calcium ion concentration due to LTB4 stimulation” value was “suppressed by the compound of Example 1 at an intensity equivalent to or greater than the suppression by ZK158252”.

For the molecule `O=C(O)CCC/C=C1\CCCCC1/C=C/C=C/C(O)C1(CC#Cc2ccccc2)CCC1` (stereo not shown) [ZK158252, reference compound], the “suppression of increase in the intracellular calcium ion concentration due to LTB4 stimulation” value was “significantly suppressed”.

For the next data set, the target named is T2, human BLT1 (Homo sapiens, UniProt Q15722).
T2 construct: expressed in transfected cells; host or cells: CHO cells
T2 sequence (Q15722 whole entry): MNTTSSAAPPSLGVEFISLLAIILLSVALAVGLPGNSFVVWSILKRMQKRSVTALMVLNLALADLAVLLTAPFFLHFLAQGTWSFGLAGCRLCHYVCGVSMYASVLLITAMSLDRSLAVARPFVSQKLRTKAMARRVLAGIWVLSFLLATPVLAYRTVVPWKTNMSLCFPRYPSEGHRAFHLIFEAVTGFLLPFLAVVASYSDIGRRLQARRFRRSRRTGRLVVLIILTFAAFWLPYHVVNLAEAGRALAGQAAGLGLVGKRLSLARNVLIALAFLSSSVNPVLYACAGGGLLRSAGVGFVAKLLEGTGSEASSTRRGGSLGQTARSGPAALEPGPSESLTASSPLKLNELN
The experiment in a line: LTB4-induced intracellular calcium increase (Fluo-3) in CHO cells expressing human BLT1. The class given is cell-based. The conditions noted are these: CHO cells harbouring BLT1; compound 10 μM; 100 nM LTB4; fluorescence AUC in 10 min. The procedure:
as §1
In the case of `CCN(CC)C(=O)/C=C(\C)c1cc2cccc(OC(C)c3ccccc3)c2o1` (stereo not shown) [Example 1, (E)-3-[7-(1-phenylethoxy)-benzofuran-2-yl]-but-2-enoic acid-diethylamide], the “suppression of increase in the intracellular calcium ion concentration due to LTB4 stimulation” value is “weaker as compared to the effect on BLT2”. Same read-out and setting: the result for `O=C(O)CCC/C=C1\CCCCC1/C=C/C=C/C(O)C1(CC#Cc2ccccc2)CCC1` (stereo not shown) [ZK158252, reference compound] reads “significantly suppressed”.

Test system in a further data set: not given
Assay: not given
Conditions: not given
A word on the melting point: it is the temperature, or range, at which the solid turns liquid. The molecule `COc1ccc(CCNC(=O)/C=C(/C)c2c(C)oc3ccc(Cl)cc23)cc1OC` [Example 2] came in with a melting point of 150.9 to 151.5 °C.

In turn, `COc1ccc(CCNC(=O)/C=C(\C)c2c(C)oc3ccc(Cl)cc23)cc1OC` [Example 3] registered a melting point of 73 to 76 °C. `COc1cccc(NC(=O)/C=C(\C)c2c(C)oc3ccc(Cl)cc23)c1` [Example 4]: the melting point lay in the range of 139 to 142 °C. Same read-out and setting: the result for `COc1ccc(CCNC(=O)/C=C(\C)c2c(C)oc3ccc(Br)cc23)cc1OC` [Example 5] reads 143.1 to 150 °C; that for `CCN(CC)C(=O)/C=C(/c1ccc(Cl)cc1)c1cc2cc(Br)ccc2o1` [Example 6], 106.7 to 109.8 °C; that for `COc1ccc(CCNC(=O)/C=C/c2coc3ccccc23)cc1OC` [Example 9], 138.1 to 140.3 °C. The molecule `O=C(/C=C(/c1ccc(Cl)cc1)c1cc2cc(Br)ccc2o1)N1CCOCC1` [Example 10] had a melting point of 150 to 153.5 °C. The same measure, in the same setting: the result for `COc1ccc(CCNC(=O)/C=C(\C)c2c(-c3ccccc3)oc3ccc(Cl)cc23)cc1OC` [Example 11] reads 169.1 to 171.9 °C; that for `CCN(CC)C(=O)/C=C(/c1ccc(OC)cc1)c1cc2cc(Br)ccc2o1` [Example 13], 93.5 to 96 °C; that for `O=C(/C=C/c1coc2ccccc12)N1CCOCC1` [Example 14], 132.1 to 134.6 °C. The molecule `COc1ccc(CCNC(=O)/C=C(/C)c2c(C)oc3ccc(Br)cc23)cc1OC` [Example 15] yielded a melting point of 150.1 to 153.5 °C.

`COc1cccc(NC(=O)/C=C(/c2ccc(Cl)cc2)c2cc3cc(Br)ccc3o2)c1` [Example 16] registered a melting point of 160.1 to 162.2 °C. The molecule `COc1ccc(C(=CC(=O)NCCc2ccc(OC)c(OC)c2)c2cc3cc(Br)ccc3o2)cc1` [Example 17] registered a melting point of 112.2 to 117 °C. In turn, `CCN(CC)C(=O)/C=C(\C)c1c(C)oc2ccc([N+](=O)[O-])cc12` [Example 20] returned a melting point of 130 to 134 °C. For the molecule `COc1ccc(CCNC(=O)C=C(C)c2c(C)oc3ccc([N+](=O)[O-])cc23)cc1OC` [Example 21], the melting point fell in the range of 116.9 to 124.4 °C.
